According to patent publication US4803223A (priority 1985, dated 1989):
Where two headings read alike, the source gives them in different places.

Assays:
P388 leukemia = test system: P388 leukemia; parameters: species or system CDF1-strain mice (male); conditions: mouse, in vivo
[1] = test system: Ehrlich ascites carcinoma; experiment: animal or person; type: in vivo, mice (CD2F1-strain Swiss, female); conditions: Mus musculus, ip, 1440 h, read-out: T/C (%)
[2] = test system: Walker carcinosarcoma 256; parameters: species or system Sprague-Dawley rats (male); conditions: rat, in vivo

For `O=C(NCCF)Nc1ccc(N(CCF)CCF)cc1` [Compound 8], the “T/C (%)” value (P388 leukemia; 25 mg/kg) was 134%.

In the case of `CCN(CCCl)c1ccc(NC(=O)NCCCl)cc1` [Compound 10], the response vs control in vivo at 100 mg/kg [1] is reported as 222%.

With `CCCN(CCCl)c1cccc(NC(=O)NCCBr)c1` [Compound 11] the response vs control in vivo at 100 mg/kg [1] was 203%.

In the case of `CN(CCBr)c1ccc(NC(=O)NCCBr)cc1` [Compound 12], the “T/C (%)” value ([2]; 50 mg/kg) is reported as 329%.

For `CC(C)N(CCBr)c1ccc(NC(=O)NCCCl)cc1` [Compound 13], the “T/C (%)” value (P388 leukemia; 100 mg/kg) was 134%.

In the case of `CCCCCCN(CCCl)c1ccc(NC(=O)NCCF)cc1` [Compound 14], the response vs control in vivo at 50 mg/kg [1] is reported as 275%.

`CN(CCI)c1cccc(NC(=O)NCCI)c1` [Compound 15] was tested, and the “T/C (%)” value ([2]; 150 mg/kg) was 220%.

For `C=CCN(CCCl)c1ccc(NC(=O)NCCCl)cc1` [Compound 16], the response vs control in vivo at 150 mg/kg [1] was 235%.

`C#CN(CCCl)c1ccc(NC(=O)NCCBr)cc1` [Compound 17] gave a response vs control in vivo at 100 mg/kg [1] of 294%.

`O=C(NCCCl)Nc1ccc(N(CCl)CCCl)cc1` [Compound 18] was tested, and the “T/C (%)” value (P388 leukemia; 25 mg/kg) was 154%.

`O=C(NCCCl)Nc1ccc(N(CCBr)CCCBr)cc1` [Compound 19] was tested, and the “T/C (%)” value ([2]; 50 mg/kg) was 329%.

`COCCN(CCCl)c1ccc(NC(=O)NCCCl)cc1` [Compound 20] gave a response vs control in vivo at 50 mg/kg [1] of 281%.

`CCSCCN(CCCl)c1ccc(NC(=O)NCCBr)cc1` [Compound 21] was tested, and the “T/C (%)” value ([2]; 100 mg/kg) was 207%.

`N#CCCN(CCCl)c1ccc(NC(=O)NCCI)cc1` [Compound 22] was tested, and the “T/C (%)” value ([2]; 50 mg/kg) was 256%.

In the case of `O=C(NCCF)Nc1ccc(N(CCCl)CCOc2ccccc2)cc1` [Compound 23], the “T/C (%)” value (P388 leukemia; 50 mg/kg) is reported as 156%.

With `CC=CCN(CCCl)c1cccc(NC(=O)NCCCl)c1` [Compound 24] the response vs control in vivo at 150 mg/kg [1] was 234%.

Work on `C=CCCCN(CCCl)c1ccc(NC(=O)NCCCl)cc1` [Compound 25] yielded a response vs control in vivo at 100 mg/kg [1] of 178%.

With `CC(C)C=CCN(CCCl)c1ccc(NC(=O)NCCBr)cc1` [Compound 26] the “T/C (%)” value ([2]; 200 mg/kg) was 216%.

For `O=C(NCCCl)Nc1cccc(N(CC=CCCl)CCCl)c1` [Compound 27], the response vs control in vivo at 50 mg/kg [1] was 246%.

In the case of `C=CCC(CBr)N(CCBr)c1ccc(NC(=O)NCCBr)cc1` (stereo not shown) [Compound 28], the “T/C (%)” value ([2]; 25 mg/kg) is reported as 182%.

For `C=CC(C#N)N(CCCl)c1ccc(NC(=O)NCCCl)cc1` (stereo not shown) [Compound 29], the “T/C (%)” value (P388 leukemia; 25 mg/kg) was 187%.

Molecule `CCCOC=CN(CCI)c1ccccc1NC(=O)NCCBr` [Compound 30] has a response vs control in vivo at 200 mg/kg [1] of 205%.

For `CSC=CCN(CCCl)c1ccc(NC(=O)NCCCl)cc1` [Compound 31], the response vs control in vivo at 150 mg/kg [1] was 184%.

`O=C(NCCCl)Nc1ccc(N(CCF)CCC=CCOc2ccccc2)cc1` [Compound 32] was tested, and the “T/C (%)” value (P388 leukemia; 50 mg/kg) was 150%.

`C#CCN(CCCl)c1cccc(NC(=O)NCCCl)c1` [Compound 33] was tested, and the “T/C (%)” value ([2]; 200 mg/kg) was 169%.

`C#CC(C)N(CCI)c1ccc(NC(=O)NCCF)cc1` (stereo not shown) [Compound 34] showed a response vs control in vivo at 150 mg/kg [1] of 199%.

`CC#CCCN(CCBr)c1ccc(NC(=O)NCCCl)cc1` [Compound 35] gave a response vs control in vivo at 150 mg/kg [1] of 191%.

`C#CCCCCN(CCCl)c1ccc(NC(=O)NCCCl)cc1` [Compound 36] was tested, and the response vs control in vivo at 100 mg/kg [1] was 186%.
